Measurements taken from the supplement of paper PMC10307832.

Assays:
Test in all cases: relative viability (nuclei count vs DMSO), 5 days (fraction); higher = more cells survive
Tozasertib + Pictilisib = compound: Cc1cc(Nc2cc(N3CCN(C)CC3)nc(Sc3ccc(NC(=O)C4CC4)cc3)n2)n[nH]1 [Tozasertib] + CS(=O)(=O)N1CCN(Cc2cc3nc(-c4cccc5[nH]ncc45)nc(N4CCOCC4)c3s2)CC1 [Pictilisib] (partner 1 µM)
In short: (§1)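 Lung cancer cell lines were seeded in 1536-well plates and dosed by pin tool the next day, with either a single drug or a fixed anchor-drug dose combined with five library-drug doses (not always all listed) spaced in √10 steps. Five days later, one step fixed the cells and stained their nuclei (final 0.05% Triton X-100, 1% formaldehyde, 1 ug/ml Hoechst), and nuclei were counted on 4× images. Relative viability is the nuclei count in treated wells divided by the count in vehicle wells, and each value is the median of duplicate plates.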

Tozasertib + Olaparib = compound: Cc1cc(Nc2cc(N3CCN(C)CC3)nc(Sc3ccc(NC(=O)C4CC4)cc3)n2)n[nH]1 [Tozasertib] + O=C(c1cc(Cc2n[nH]c(=O)c3ccccc23)ccc1F)N1CCN(C(=O)C2CC2)CC1 [Olaparib] (partner 8 µM)
In short: as §1

Tozasertib + Luminespib = compound: Cc1cc(Nc2cc(N3CCN(C)CC3)nc(Sc3ccc(NC(=O)C4CC4)cc3)n2)n[nH]1 [Tozasertib] + CCNC(=O)c1noc(-c2cc(C(C)C)c(O)cc2O)c1-c1ccc(CN2CCOCC2)cc1 [Luminespib] (partner 0.01 µM)
In short: as §1

Tozasertib + Alpelisib = compound: Cc1cc(Nc2cc(N3CCN(C)CC3)nc(Sc3ccc(NC(=O)C4CC4)cc3)n2)n[nH]1 [Tozasertib] + Cc1nc(NC(=O)N2CCC[C@H]2C(N)=O)sc1-c1ccnc(C(C)(C)C(F)(F)F)c1 [Alpelisib] (partner 2 µM)
In short: as §1

| Cell Line | relative viability (Tozasertib + Pictilisib; first compound 0.004 µM) | relative viability (Tozasertib + Pictilisib; first compound 0.04 µM) | relative viability (Tozasertib + Pictilisib; first compound 0.1265 µM) | relative viability (Tozasertib + Olaparib; first compound 0.004 µM) | relative viability (Tozasertib + Olaparib; first compound 0.01265 µM) | relative viability (Tozasertib + Olaparib; first compound 0.04 µM) | relative viability (Tozasertib + Olaparib; first compound 0.1265 µM) | relative viability (Tozasertib + Luminespib; first compound 0.004 µM) | relative viability (Tozasertib + Luminespib; first compound 0.01265 µM) | relative viability (Tozasertib + Luminespib; first compound 0.04 µM) | relative viability (Tozasertib + Luminespib; first compound 0.1265 µM) | relative viability (Tozasertib + Alpelisib; first compound 0.004 µM) | relative viability (Tozasertib + Alpelisib; first compound 0.04 µM) | relative viability (Tozasertib + Alpelisib; first compound 0.1265 µM) | relative viability (Tozasertib + Pictilisib; first compound 0.01265 µM) | relative viability (Tozasertib + Alpelisib; first compound 0.01265 µM) |
| --- | --- | --- | --- | --- | --- | --- | --- | --- | --- | --- | --- | --- | --- | --- | --- | --- |
| NCI-H2228 | 0.509 | 0.326 | 0.355 | 0.616 | 0.511 | 0.622 | 0.366 | 0.216 | 0.167 | 0.204 | 0.167 | 0.806 | 0.556 | 0.434 |  |  |
| NCI-H2347 | 0.723 | 0.648 | 0.389 | 0.528 | 0.616 | 0.697 | 0.582 | 0.326 |  | 0.39 | 0.346 | 0.996 | 0.871 | 0.963 | 0.763 | 1.09 |
| NCI-H2405 | 0.386 | 0.479 | 0.396 | 0.913 |  | 0.691 |  | 0.673 | 0.67 | 0.58 | 0.712 | 0.723 | 0.778 | 0.807 | 0.478 | 0.812 |
| NCI-H3122 | 0.626 | 0.656 | 0.61 | 0.646 | 0.67 | 0.62 | 0.641 | 0.0858 | 0.0879 | 0.1 | 0.101 | 0.808 | 0.847 | 0.749 | 0.49 | 0.809 |
| PC-3 [JPC-3] | 0.657 | 0.732 | 0.598 | 0.807 | 1.15 | 1.16 | 1.14 | 0.625 | 0.699 | 0.814 | 0.71 | 0.835 | 1.03 | 0.959 | 0.724 | 1.03 |
| PC-14 | 0.14 | 0.593 | 0.725 |  | 0.208 | 0.256 | 0.224 |  | 0.114 | 0.179 | 0.129 | 0.982 | 0.954 | 0.956 | 0.541 | 0.95 |
| RERF-LC-KJ | 0.503 | 0.597 | 0.456 | 0.945 | 0.871 | 0.865 | 0.668 | 1.3 | 1.21 | 1.2 | 0.983 | 0.897 | 0.914 | 0.599 | 0.594 | 0.761 |
| SK-LU-1 | 0.71 | 0.639 | 0.458 | 0.466 | 0.455 | 0.432 | 0.518 | 0.242 | 0.211 | 0.197 | 0.191 | 1.27 | 1.19 | 0.561 | 0.508 | 1.02 |
| SK-MES-1 | 0.401 | 0.35 | 0.326 | 0.791 | 0.666 | 0.71 | 0.657 | 0.921 | 0.731 | 0.82 | 0.82 | 0.967 | 0.894 | 0.535 | 0.302 | 0.746 |
| SW 1573 | 0.541 | 0.546 | 0.293 | 0.479 | 0.452 | 0.456 | 0.208 | 0.25 | 0.239 | 0.139 | 0.228 | 0.751 | 0.615 | 0.702 | 0.541 | 0.674 |
| UMC-11 | 1.09 | 0.864 | 0.463 | 0.367 | 0.47 | 0.362 | 0.257 | 1.02 | 0.983 |  | 0.422 | 1.08 | 1.13 | 0.146 | 0.788 | 0.968 |
